Patent US20180340008A1, “ANTIBIOTIC OLIGOPEPTIDE MIMETICS” (priority 2017, published 2018)
Where a name gives a salt, the structure may show the parent alone. Non-standard residues stand in square brackets, D forms with d. Residues, ends and D or L forms follow the SMILES beside them. ξ: configuration not given here. *: point of attachment. ξW = NC(Cc1c[nH]c2ccccc12)C(=O)O; NHOH = ON*

Test system: E. coli (ATTC 8739)
Assay: Zone of inhibition test in Petri dish
Assay type: cell-based
Experimental: Compound A was tested against L-phenylalanine-(S)-2-amino-N-hydroxy-4-(methylthio)butanamide hydrochloride (Example 3) in a side-by-side comparison in a conventional zone of inhibition test. In this test, both compounds were compared at various concentrations against E. coli (ATTC 8739) grown in a Petri dish using the antibiotic kanamycin as a control.

CSCC[C@H](NC(=O)CN)C(=O)NO [Compound A, reference compound]
strength of zone of inhibition (at 50 μg): quite weak

CSCC[C@H](NC(=O)C(N)Cc1c[nH]c2ccccc12)C(=O)NO (stereo partly drawn) [Example 3, L-Tryptophan-(S)-2-amino-N-hydroxy-4-(methylthio)butanamide hydrochloride] (H-[ξW]-Met-{NHOH})
concentration at which a zone of inhibition was shown (Petri dish, kanamycin control, FIG. 1A/1B): 12.5 µg
strength of zone of inhibition compared with cpd. A at 50 μg (at 12.5 μg): substantially stronger
